Data set [1] addresses BACE1 (Homo sapiens, UniProt P56817). Put plainly: Biochemical FRET based assay. Conditions: recombinant BACE1 1 μg/ml, 120 minutes at room temperature, pH 5.0; read-out: Biochemical FRET based assay pIC50 (converted). The text has this:
This assay is a Fluorescence Resonance Energy Transfer Assay (FRET) based assay. The substrate for this assay is an APP derived 13 amino acids peptide that contains the ‘Swedish’ Lys-Met/Asn-Leu mutation of the amyloid precursor protein (APP) beta-secretase cleavage site. This substrate also contains two fluorophores: (7-methoxycoumarin-4-yl) acetic acid (Mca) is a fluorescent donor with excitation wavelength at 320 nm and emission at 405 nm and 2,4-Dinitrophenyl (Dnp) is a proprietary quencher acceptor. […] Upon cleavage by BACE1, the fluorophore Mca is separated from the quenching group Dnp, restoring the full fluorescence yield of the donor. The increase in fluorescence is linearly related to the rate of proteolysis.
Briefly in a 384-well format recombinant BACE1 protein in a final concentration of 1 μg/ml is incubated for 120 minutes at room temperature with 10 μm substrate in incubation buffer (40 mM Citrate buffer pH 5.0, 0.04% PEG, 4% DMSO) in the absence or presence of compound. Next the amount of proteolysis is directly measured by fluorescence measurement at T=0 and T=120 (excitation at 320 nm and emission at 405 nm). Results are expressed in RFU (relative fluorescence units), as difference between T120 and T0.

The test system of data set [2] is Abeta 1-42. Nature of the data set: Cellular αLisa assay in SKNBE2 cells, Abeta 1-42. In kind it is cell-based. Conditions: human neuroblastoma SKNBE2 expressing hAPP695, incubated for 18 hours; for IC50: Homo sapiens, SKNBE2, 18 h, read-out: Cellular αlisa assay in SKNBE2 cells Aβ42 pIC50 (converted). As for the experimental part: (§1) In two αLisa assays the levels of Abeta total and Abeta 1-42 produced and secreted into the medium of human neuroblastoma SKNBE2 cells are quantified. The assay is based on the human neuroblastoma SKNBE2 expressing the wild type Amyloid Precursor Protein (hAPP695). The compounds are diluted and added to these cells, incubated for 18 hours and then measurements of Abeta 1-42 and Abeta total are taken. Abeta total and Abeta 1-42 are measured by sandwich αLisa. αLisa is a sandwich assay using biotinylated antibody AbN/25 attached to streptavidin coated beads and antibody Ab4G8 or cAb42/26 conjugated acceptor beads for the detection of Abeta total and Abeta 1-42 respectively. In the presence of Abeta total or Abeta 1-42, the beads come into close proximity. The excitation of the donor beads provokes the release of singlet oxygen molecules that trigger a cascade of energy transfer in the acceptor beads, resulting in light emission. Light emission is measured after 1 hour incubation (excitation at […] and emission at 615 nm).
(§2) A best-fit curve is fitted by a minimum sum of squares method to the plot of %Controlmin versus compound concentration.

Data set [3] concerns Abeta total. Nature of the data set: Cellular αLisa assay in SKNBE2 cells, Abeta total. In kind it is cell-based. Conditions: human neuroblastoma SKNBE2 expressing hAPP695, incubated for 18 hours; for IC50: Homo sapiens, SKNBE2, 18 h, read-out: Cellular αlisa assay in SKNBE2 cells Aβtotal pIC50 (converted). As for the experimental part:
as §1, §2

Structures are written as SMILES. A value given as a limit tells only on which side of the number the result lay.

Chain of BACE1 (P56817 46-501): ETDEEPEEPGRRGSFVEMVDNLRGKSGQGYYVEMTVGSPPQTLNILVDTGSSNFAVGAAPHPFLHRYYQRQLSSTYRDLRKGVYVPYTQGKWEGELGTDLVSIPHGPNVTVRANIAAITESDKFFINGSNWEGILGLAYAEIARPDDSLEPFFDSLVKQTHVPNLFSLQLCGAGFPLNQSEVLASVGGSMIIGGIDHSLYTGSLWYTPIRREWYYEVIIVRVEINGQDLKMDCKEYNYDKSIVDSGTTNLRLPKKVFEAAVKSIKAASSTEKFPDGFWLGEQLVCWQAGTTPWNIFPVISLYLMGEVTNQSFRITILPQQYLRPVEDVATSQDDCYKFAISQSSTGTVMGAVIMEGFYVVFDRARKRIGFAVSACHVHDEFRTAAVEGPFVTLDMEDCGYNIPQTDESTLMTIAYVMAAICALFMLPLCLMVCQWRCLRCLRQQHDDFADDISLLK

With `COc1cncc(-c2cccc(C3(C)N=C(N)CN(C)C3=O)c2)c1` (racemic) [Compound 2, rac-5-amino-3-[3-(5-methoxy-pyridin-3-yl)-phenyl]-1,3-dimethyl-3,6-dihydro-1H-pyrazin-2-one], the results for the IC50 in data set [1], in data set [2] and in data set [3] were 10.5 µM, 1.66 µM and 1.51 µM, respectively.

Regarding `CN1CC(N)=NC(C)(c2cccc(NC(=O)c3ccc(Cl)cn3)c2)C1=O` (racemic) [Compound 3, rac-5-chloro-pyridine-2-carboxylic acid [3-(6-amino-2,4-dimethyl-3-oxo-2,3,4,5-tetrahydro-pyrazin-2-yl)-phenyl]-amide], the IC50 was 0.0646 µM in data set [2] and 0.0275 µM in data set [3].

The term melting point denotes the temperature, or range, at which the solid turns liquid. For the compound `CCN1CC(N)=NC(C)(c2cc(-c3cncc(OC)c3)c(F)cc2F)C1=O` (racemic) [Compound 9, rac-5-amino-3-[2,4-difluoro-5-(5-methoxy-pyridin-3-yl)-phenyl]-1-ethyl-3-methyl-3,6-dihydro-1H-pyrazin-2-one], the melting point was 81.8 °C. Also, in data set [1], the IC50 was more than 30.2 µM. Moreover, the IC50 in data set [2] is more than 10 µM. Besides, in data set [3], the IC50 is 9.12 µM.

For `CN1CC(N)=NC(C)(c2cccc(NC(=O)c3ccc(Cl)cn3)c2)C1=O` (single isomer, unassigned) [Compound 4, (S*)-5-chloro-pyridine-2-carboxylic acid [3-(6-amino-2,4-dimethyl-3-oxo-2,3,4,5-tetrahydro-pyrazin-2-yl)-phenyl]-amide], the “Cellular αlisa assay in SKNBE2 cells Aβ42 pIC50” value in data set [2] is given as less than 5. Also, the “Cellular αlisa assay in SKNBE2 cells Aβtotal pIC50” value in data set [3] is reported as less than 5.

For the compound `CN1CC(N)=NC(C)(c2cccc(NC(=O)c3ccc(Cl)cn3)c2)C1=O` (single isomer, unassigned) [Compound 5, (R*)-5-chloro-pyridine-2-carboxylic acid [3-(6-amino-2,4-dimethyl-3-oxo-2,3,4,5-tetrahydro-pyrazin-2-yl)-phenyl]-amide], in data set [2], the “Cellular αlisa assay in SKNBE2 cells Aβ42 pIC50” value was found to be 7.44. The “Cellular αlisa assay in SKNBE2 cells Aβtotal pIC50” value in data set [3] is 7.43.

As to `Cc1cnc(C(=O)Nc2cccc(C3(C)N=C(N)CN(C)C3=O)c2)cn1` (racemic) [Compound 6, rac-5-methyl-pyrazine-2-carboxylic acid [3-(6-amino-2,4-dimethyl-3-oxo-2,3,4,5-tetrahydro-pyrazin-2-yl)-phenyl]-amide], the IC50 is 7.08 µM in data set [1], 1.26 µM in data set [2] and 1.15 µM in data set [3].

Consider `CN1CC(N)=NC(C)(c2cccc(-c3cncnc3)c2)C1=O` (racemic) [Compound 1, rac-5-amino-1,3-dimethyl-3-(3-pyrimidin-5-yl-phenyl)-3,6-dihydro-1H-pyrazin-2-one], for which the melting point turned out to be 223.4 °C. Also, in data set [1], the IC50 was 20.4 µM. Besides, in data set [2], the IC50 is 4.47 µM. Also, the IC50 in data set [3] is 3.89 µM.

The values above are taken from patent US20130079349A1 (JANSSEN PHARMACEUTICA NV, priority 2010, published 2013).
